These results are taken from article PMC7615343, “Fluorination Influences the Bioisostery of Myo-Inositol Pyrophosphate Analogs” (Chemistry (Weinheim an der Bergstrasse, Germany), 2023).

This assay addresses T1, PPIP5K2^1-366 (human PPIP5K2 kinase domain) (Homo sapiens, UniProt O43314).
T1 construct: one comprised residues 1–366; made in house
T1 sequence (O43314 1-366): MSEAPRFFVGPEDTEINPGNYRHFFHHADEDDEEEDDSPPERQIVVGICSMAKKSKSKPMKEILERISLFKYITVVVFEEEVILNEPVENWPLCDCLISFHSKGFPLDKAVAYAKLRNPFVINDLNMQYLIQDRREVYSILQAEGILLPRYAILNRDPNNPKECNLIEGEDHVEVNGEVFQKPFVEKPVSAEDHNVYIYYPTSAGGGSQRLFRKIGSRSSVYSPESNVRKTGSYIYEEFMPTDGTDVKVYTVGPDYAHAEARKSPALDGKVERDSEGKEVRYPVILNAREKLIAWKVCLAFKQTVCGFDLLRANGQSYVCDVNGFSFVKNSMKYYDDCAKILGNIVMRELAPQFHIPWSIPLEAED
In words: PPIP5K2KD reverse kinase assay (ATP formation from ADP and 1,5(PP)2-IP4). Conditions: 25 °C, 30 min, 0.1 mM ADP, 100 nM [1,5]PP-IP4, ATP production measured; this work; read-out: IC50, inhibition of the reverse kinase activity of PPIP5K2^1-366. Format: biochemical. On the procedure:
An alternative method to study the interaction of PP-IP5 analogs with PPIP5K2^KD is to derive IC50 values for inhibition of a “reverse-kinase” assay that records ATP formation when the enzyme is incubated with ADP and 1,5(PP)2-IP4.[29, 31] This approach avoids the need to use radiolabeled material and HPLC analysis. Moreover, the assay of ATP production is inherently more sensitive compared to measuring ATP consumption. […] In addition to the catalytic pocket, the PPIP5K2 kinase reaction cycle also utilizes a surface-mounted substrate capture site; the latter was initially identified through its binding of 5PA-IP5.[31] […] In this case, the higher affinity of the capture site for less polar molecules may explain why 5PA-IP5 is the only analog so far detected in this site.
For the reverse kinase assay, PPIP5K2^1-366 (2.5 μg mL^-1) was incubated at 25 °C for 30 min with 20 μL buffer containing 20 mM Tris-HCl, pH 7.5, 10 mM MgCl2, 0.1 mM ADP, 100 nM [1,5]PP-IP4 and various concentrations of either 5PCP-IP5 or 5PCF2P-IP5. The generated ATP was measured using a Molecular Probes ATP Determination kit (Thermo Fisher Scientific catalog number A22066). The IC50 value was calculated using GraphPad Prism. […]
Diffraction data were collected using APS beamlines 22 -ID. […] The structure was determined using rigid body and direct Fourier synthesis, and refined with t he equivalent and expanded test sets. […]

With `O=P(O)(O)CP(=O)(O)O[C@H]1[C@H](OP(=O)(O)O)[C@@H](OP(=O)(O)O)[C@@H](OP(=O)(O)O)[C@@H](OP(=O)(O)O)[C@@H]1OP(=O)(O)O` [5PCP-IP5], the IC50 came to 0.223 µM.

`O=P(O)(O)O[C@H]1[C@@H](OP(=O)(O)O)[C@H](OP(=O)(O)O)[C@@H](OP(=O)(O)C(F)(F)P(=O)(O)O)[C@H](OP(=O)(O)O)[C@H]1OP(=O)(O)O` [5PCF2P-IP5]: the IC50 was found to be 0.583 µM.

For orientation: IC50 means the concentration that gives 50% inhibition.
